Read-outs that look alike come from different tables or passages of the source. Residues, ends and D or L forms follow the SMILES beside them. *: point of attachment. Cbz = O=C(OCc1ccccc1)*
Columns and labels:
[1] = system: control cell lines (MCF-10A and MCF-7); test: Monotherapy drug screen, mean across the controls; assay type: cell-based, human; conditions: for area under the dose response curve (AUC), mean ± SD: 24 h; for IC50: 24 h drug treatment, read-out: GR50 (mean ± SD)
Method: (§1) Eighteen pharmaceutical compounds were purchased from Selleckchem (Supplementary Table 2). Stock solutions were prepared using dimethyl sulfoxide (DMSO; Merck), physiological saline (sodium chloride 0.9%) or Milli-Q water, and stored at −80 °C. […] Matched concentration solvent vehicle controls were used for each drug concentration. The drug screens were performed in triplicate and repeated three (monotherapy) or two (combination therapy) times (Fig. 7).
(§2) The optimal seeding density per 96-well was determined for each cell line as previously described. The cells were seeded at a density of 4.0 × 10^3 to 7.5 × 10^3 (cell type dependent) in 96-well clear, flat-bottom microplates (Corning Life Sciences, Sigma-Aldrich) in 100 µl complete culture medium (Supplementary Table 1) and cultured for 24 h. Cell viability was determined using the resazurin assay in untreated cells at the time of plating (t = 0) and treated cells after 24 h drug treatment (Fig. 7). Percentage cell viability was calculated as 100% × (absorbance of treated cells – absorbance of background controls) / (absorbance of matched solvent vehicle controls – absorbance of background controls). The area under the curve (AUC), half-maximal inhibitory concentration (IC50), drug potency (GR50), and drug efficacy (GRmax) were determined for each compound using the GRmetrics (version 1.20.0) package in R. The monotherapy data were evaluated with the IDACombo (version 1.0.2) package in R to predict potential drug combinations (Table 1). SynergyFinder (version 3.2.10) package in R was used to identify synergistic drug combinations.
(§3) Eighteen pharmaceutical compounds were purchased from Selleckchem. […] The solubility of the compound was enhanced by pre-heating the solvent (lukewarm), if necessary. […] The stock solutions were stored at -80°C. […] Matched concentration solvent vehicle controls were used for each drug concentration. The drug screens were performed in triplicate and repeated three times for the monotherapies and twice for the combination treatments. The drug(s) and corresponding controls were plated in 96-well PCR plates (VWR) and stored at -20°C (Fig. 6). The drug plates were thawed, centrifuged (3000 rpm for 30s), and acclimatized to RT before the drugs were added to the cells. New drug plates were prepared for each drug screen.
(§4) The cells were seeded at a density of 4.0x10^3 to 7.5x10^3 (cell type-dependent) in 96-well clear, flat-bottom microplates (Corning Life Sciences, Sigma-Aldrich) in 100 µl culture medium supplemented with 10% FBS and cultured for 24h. Cell viability was determined using the resazurin assay after 24h drug treatment (Fig. 6). Percentage cell viability was calculated as 100% × (absorbance of treated cells – absorbance of background controls) / (absorbance of matched solvent vehicle controls – absorbance of background controls). Normalized growth rate inhibition (GR) was assessed using the absorbance of untreated cells after the time of plating (t = 0). […] For combination treatment, the monotherapy data were evaluated with the IDACombo (version 1.0.2)[20] package in R to predict potential drug combinations (Table 1). SynergyFinder (version 3.2.10)[21] package in R was used to identify synergistic drug combinations.

[2] = system: eight TNBC cell lines and two controls (MCF-10A and MCF-7); test: Monotherapy drug screen, all investigated cell lines; assay type: cell-based, human; conditions: for drug potency classification, below the threshold: GR50 and AUC both below the threshold
Method: as §1, §2, §3, §4

[3] = system: eight TNBC cell lines (BT-549, CAL-148, HCC1806, HCC38, HCC70, MDA-MB-436, MDA-MB-453, MDA-MB-468); test: Monotherapy drug screen, mean across the TNBC cell lines; conditions: for area under the dose response curve (AUC), mean ± SD / cytotoxic effect at the highest dose: TNBC cell lines; for cytotoxic effect at the highest dose: by GRmax; for IC50: read-out: GR50 (mean ± SD)
Method: as §1, §2, §3, §4

CAL-148 cells [4] = test: Resazurin-based cell viability assay, monotherapy drug screen; set-up: species or system human; AUC: unit not given beside the values; conditions: for AUC: area under the dose response curve, 24 h; for GRmax: drug efficacy at highest tested dose (<0 cytotoxic, 0 cytostatic, >0 partial growth inhibition)
Method: as §1, §2, §3
Cell viability was measured daily (day 0 [plating day] to day 4) using 0.2 mg/ml resazurin solution prepared from resazurin sodium salt (Fisher Scientific) dissolved in sterile 1xPBS (ThermoFisher Scientific). Before use, the resazurin solution was brought to RT before 10 µl (10% of cell medium volume) was added to each 96-well and incubated for 4h at 37°C. […] The slope of the curve was used to determine the optimal seeding density, i.e., the highest seeding density with linear growth between days 1 and 3.
as §4

CAL-148 cells [5] = test: Combination therapy, resazurin viability, SynergyFinder; assay type: cell-based, human
Method: as §1, §2, §3, §4

HCC38 cells = test: as above; assay type: cell-based, human
Method: as §1, §2, §3, §4

[6] = molecular target: T1, β5 catalytic site of the 20 S proteasome (Homo sapiens, UniProt P28074); test: Proteasome activity of the β5 catalytic site in MCF-7 cells (Suc-Leu-Leu-Val-Tyr-AMC substrate); assay type: cell-based
T1 construct: endogenous in cells; host or cells: MCF-7
Method: Proteasome activity of the β5 catalytic site was determined for the PIs using a Suc-Leu-Leu-Val-Tyr-AMC fluorescent proteasome substrate (Enzo Life Sciences, Cat. BML-P802) at a final concentration of 20 µM. MCF-7 cells were seeded at 7.5 × 10^3 cells/well in black 96-well flat-bottom microplates (Nuclon™ Delta Surface, ThermoFisher Scientific) with 100 µl culture medium supplemented with 10% FBS. After 24 h, the cells were treated for 6 h with the 11 PIs at 1, 10, 100, and 1000 nM and matched untreated controls.

[7] = CAL-148, growth rate inhibition concentration at GR(c) = 0.5, 24 h, read-out: GR50 (the source's name)
[8] = metrics GR50 < 1.0 µM and AUC < 0.80
[9] = CAL-148, 24 h drug treatment, read-out: IC50
[10] = Homo sapiens, CAL-148, 24 h, read-out: GR50 (µM)

| Structure (SMILES) | drug potency classification, below the threshold [2] | area under the dose response curve (AUC), mean ± SD ([3]; 24 h) | cytotoxic effect at the highest dose [3] | AUC (CAL-148 cells [4]; CAL-148) | GRmax (CAL-148 cells [4]; CAL-148) | IC50 (CAL-148 cells [4]; [7]) | drug potency classification [2, 8] | further results |
| --- | --- | --- | --- | --- | --- | --- | --- | --- |
| CC[C@H](C)[C@H](NC(=O)[C@H]([C@@H](C)CC)N(C)C(C)=O)C(=O)N[C@H](C(=O)N[C@@H](CC(C)C)C(=O)[C@@]1(C)CO1)[C@@H](C)O [Epoxomicin] | highly potent drugs | 0.69 ± 0.10 | lowest cytotoxic effects | 0.78 | 0.11 | 0.77 µM |  | area under the dose response curve (AUC), mean ± SD [1]: 0.66 ± 0.080; IC50 [1]: 85 ± 10 nM; drug potency classification [2]: potent drugs; IC50 ([3]; across the TNBC cell lines, 24 h drug treatment): 220 ± 230 nM |
| [NH2][Pt]1([NH2])[O]CC(=O)[O]1 [Nedaplatin] |  | 0.68 ± 0.10 | cytotoxic | 0.78 | −0.93 | 0.21 µM | potent drugs | area under the dose response curve (AUC), mean ± SD [1]: 0.70 ± 0.13; Inhibition (%) (CAL-148 cells [5]; nedaplatin 8 µM alone): −9.21%; Inhibition (%) (CAL-148 cells [5]; nedaplatin 32 µM alone): 2.14%; Inhibition (%) (CAL-148 cells [5]; nedaplatin 128 µM alone): 9.01%; Inhibition (%) (CAL-148 cells [5]; nedaplatin 512 µM alone): 49.72%; IC50 (CAL-148 cells [4]; [9]): 0.32 µM |
| CC1=C(O)C(=O)C=C2C1=CC=C1[C@@]2(C)CC[C@@]2(C)[C@@H]3C[C@](C)(C(=O)O)CC[C@]3(C)CC[C@]12C [Celastrol] |  |  | cytotoxic | 0.85 | −0.84 |  |  | IC50 (CAL-148 cells [4]; Homo sapiens, CAL-148, 24 h): 3.7 µM; IC50 (CAL-148 cells [4]; [10]): 3.1 µM |
| N.N.O=C([O-])C1(C(=O)[O-])CCC1.[Pt+2] [Carboplatin] |  |  | lowest cytotoxic effects | 0.92 | 0.03 | 0.49 µM |  | Inhibition (%) (HCC38 cells; carboplatin 8 µM alone): −3.64%; Inhibition (%) (HCC38 cells; carboplatin 32 µM alone): −1.55%; Inhibition (%) (HCC38 cells; carboplatin 128 µM alone): 0.55%; Inhibition (%) (HCC38 cells; carboplatin 512 µM alone): 11.55%; IC50 (CAL-148 cells [4]; [9]): 0.93 µM |
| CC(C)C[C@H](NC(=O)CNC(=O)c1cc(Cl)ccc1Cl)B(O)O [MLN 2238, MLN-2238] | highly potent drugs | 0.76 ± 0.10 |  | 0.83 | 0.18 |  | potent drugs | inhibition at 10 µM ([6]; MCF7, MCF-7 cells treated 6 h, 10000 nM, read-out: inhibition of β5 activity): 33%; IC50 ([3]; Homo sapiens, 24 h): 680 ± 1000 nM; IC50 (CAL-148 cells [4]; Homo sapiens, CAL-148, growth rate inhibition concentration at GR(c) = 0.5, 24 h, read-out: GR50 (the source's name)): 0.27 µM |
| CC(C)C[C@@H](C=O)NC(=O)[C@H](CC(C)C)NC(=O)[C@H](CC(C)C)NC(=O)OCc1ccccc1 [MG 132, MG-132] (Cbz-Leu-Leu-Leu-aldehyde) |  |  |  | 0.89 | 0.22 |  |  | inhibition at 10 µM ([6]; MCF7, read-out: inhibition of β5 activity): 25%; IC50 (CAL-148 cells [4]; [10]): 3.4 µM |
| CC(=O)O[C@@]12CO[C@@H]1C[C@H](O)[C@@]1(C)C(=O)[C@H](O)C3=C(C)[C@@H](OC(=O)[C@H](O)[C@@H](NC(=O)OC(C)(C)C)c4ccccc4)C[C@@](O)([C@@H](OC(=O)c4ccccc4)[C@H]21)C3(C)C [Docetaxel] | highly potent drugs | 0.79 ± 0.10 |  | 0.89 | 0.74 |  | potent drugs | IC50 ([1]; Homo sapiens): 7.8 ± 1.3 nM; IC50 ([3]; Homo sapiens, 24 h): 8.8 ± 3.9 nM |
